# Patent US6710090B2, “Inhibitory or blocking agents of molecular generating and/or inducing functions” (priority 1994, dated 2004)
# Assay: Comparison of 4,4-dimethyl-2-cyclohexen-1-one with Yoshixol on all parameters
# Description: In addition, higher dosage was needed to be obtained qualitatively an identical effect to the above-mentioned effect of Yoshixol. Then, the concentration of 4,4-dimethyl-2-cyclohexen-1-one was required about 30-100 times dosage of Yoshixol on the biological samples, and about 10-50 times dosage of Yoshixol on lower molecular substance and macromolecular substance of non-living samples.
smiles,measurement,setting,value
"CC1(C)C=CC(=O)CC1 [4,4-dimethyl-2-cyclohexen-1-one]","control, inhibit and/or block function generated by multi-dimensional structure",all parameters demonstrated by Yoshixol,similarly to Yoshixol
same,concentration required for an effect identical to Yoshixol,on the biological samples,30-100 times dosage of Yoshixol
